Measured values taken from patent US11219623B2, “Inflammasome inhibition for the treatment of Parkinson's disease, Alzheimer's disease and multiple sclerosis” (University of Kentucky Research Foundation, priority 2015, dated 2022).
Values after ≈ are worked out from the molar mass of the structure shown. “Also recorded” adds a separate entry of the source.

Tests used:
[1] = system: human LINE-1 retrotransposon; test: EGFP cell culture L1 retrotransposition assay in HeLa cells; assay type: cell-based; conditions: 7 days after transfection, flow cytometry
Protocol: These findings pave way for the rational re-design and improvement of nucleoside analogs as novel therapeutics. The enhanced green fluorescent protein (EGFP) cell culture L1 retrotransposition assay was performed in HeLa cells. […] Transfected cells were selected in puromycin. 7 days after transfection, cells that underwent retrotransposition (EGFP-positive) were assayed by flow cytometry. Cells were gated based on background fluorescence of plasmid JM111, which has two point mutations in L1-ORF1 that abolish retrotransposition. Data are normalized with RPS set to 1.

[2] = system: Raji TK^+ and Raji TK^− cells; test: Phosphorylation of AZT to AZT-triphosphate in Raji TK+ / TK− cells, LC-MS; assay type: in vitro ADME
From the text: (§1) To determine whether LPS/ATP-induced inflammasome activation can be inhibited without RT inhibition, the present inventors utilized thymidine kinase-deficient (Raji/TK^−) and -expressing (Raji/TK^+) cells (Balzarini et al., 1989).
FIG. 50 is a standard curve of AZT-TP standards (black circle). […] FIG. 50 is representative of two experiments.

Caspase-1 [3] = test: iGLuc luminescence assay of ATP-induced Caspase-1 activation in J774 iGLuc cells; assay type: cell-based, mouse; conditions: for Caspase-1 cleavage (luminescence): ATP 5 mM, N=3
Protocol: Caspase-1 is the enzyme at the core of the inflammasome complex and is an important danger response signal and mediator of RPE cell death in AMD. […] Importantly, there was some difference between individual compounds in terms of the dose response curve, emphasizing the need to test each compound (with unique R group(s)) individually.
To obtain the data set forth in FIGS. 64-73, an iGLuc assay was conducted (modified from Bartok et al. iGLuc: a luciferase-based inflammasome and protease activity reporter. Nature Methods 2013; 10(2):147-54). Briefly, 100,000 iGLuc cells per well were plated in a 96 well plate overnight. The next morning, media is aspirated from the plate and replaced with 75 μL of serum free DMEM with drugs (NRTIs or modified NRTIs) for 30 min. After 30 minutes of drug exposure, 20 mM ATP (25 μL) is added for a final concentration of 5 mM. 50 μL of media from each well is collected and 50 μL of coelenterazine 4.4 μM is added to each sample, and luminescence is read immediately.

[4] = LogP, partition coefficient in 1-octanol; assay type: physicochemical; conditions: 1-octanol partition
IL-1 beta = test: LPS/ATP-induced IL-1 beta activation in Raji TK− and TK+ cells, western blot; assay type: cell-based
From the text: as §1

Caspase-1 [5] = test: Alu RNA-induced Caspase-1 activation, western blot, primary human RPE cells; assay type: cell-based; conditions: for Alu RNA-induced Caspase-1 activation/cleavage: concentration not given
From the text: The bottom row in FIG. 5 is a vinculin loading control.

wild-type mice [6] = test: pAlu-induced RPE degeneration, mouse model of dry AMD; assay type: in vivo
Protocol: Mouse studies were conducted to study treatment with NRTIs or derivatives.

[7] = system: GFP-expressing lentivirus; test: GFP-expressing lentivirus transduction/replication assay in HeLa cells; assay type: cell-based; conditions: for lentivirus replication (GFP-positive cells per field): 10 μM, 72 hours, MOI 20
Protocol: All drugs were added at a concentration of 10 μM. Cells were imaged for GFP expression 72 hours after addition of lentivirus. GFP-positive cells per field of view were recorded. n=4-11, error bars S.E.M. Reverse transcription of lentivirus is essential for GFP expression; modified NRTIs should not block reverse transcriptase, whereas NRTIs are known to block reverse transcriptase.
The present disclosure further provides the results of additional experiments in FIG. 21-FIG. 23.

wild-type mice [8] = test: Laser-induced choroidal neovascularization (CNV; wet AMD) in wild-type mice; conditions: N=16
human P2X7 receptor = target: T1, human P2X7 receptor (Homo sapiens, UniProt Q99572); conditions: HEK293 stably expressing human P2X7; concentration not given
T1 sequence (Q99572 1-595): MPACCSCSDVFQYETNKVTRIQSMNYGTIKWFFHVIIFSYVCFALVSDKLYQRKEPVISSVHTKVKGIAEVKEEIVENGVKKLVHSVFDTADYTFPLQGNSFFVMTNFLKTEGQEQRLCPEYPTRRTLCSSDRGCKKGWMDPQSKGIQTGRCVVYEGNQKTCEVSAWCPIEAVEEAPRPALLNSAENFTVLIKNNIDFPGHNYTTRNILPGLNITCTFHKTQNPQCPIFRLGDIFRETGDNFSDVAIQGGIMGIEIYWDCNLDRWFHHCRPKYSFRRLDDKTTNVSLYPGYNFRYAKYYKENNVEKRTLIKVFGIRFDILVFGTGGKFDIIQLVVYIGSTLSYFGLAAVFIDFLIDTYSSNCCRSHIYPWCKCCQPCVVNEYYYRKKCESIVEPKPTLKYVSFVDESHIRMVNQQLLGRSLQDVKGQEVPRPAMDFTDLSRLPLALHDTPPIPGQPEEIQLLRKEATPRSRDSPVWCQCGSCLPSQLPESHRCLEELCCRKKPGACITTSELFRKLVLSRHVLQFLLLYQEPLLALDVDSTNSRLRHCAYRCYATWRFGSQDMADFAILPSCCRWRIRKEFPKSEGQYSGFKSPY

mice [9] = test: Amyloid beta-induced RPE degeneration in mice; assay type: in vivo, mouse; conditions: intraperitoneal 25 mg/kg days 1 to 6; read day 7
mice [10] = test: Iron-induced RPE degeneration in mice; assay type: in vivo, mouse; conditions: intraperitoneal 25 mg/kg days 1 to 6; read day 7
mtDNA = test: Relative quantity of mtDNA, quantitative PCR, primary human RPE cells; conditions: 50 μM; four days; relative to DMSO
Caspase-1 [11] = test: Iron (III) ammonium citrate-induced Caspase-1 activation, western blot, primary human RPE cells; assay type: cell-based; conditions: 25 μM, Fe(III) ammonium citrate (100 μM)
From the text: Caspase-1 activation (p20 subunit) in primary human retinal pigment epithelium (RPE) cells in the presence of iron (III) ammonium citrate was studied.
Caspase-1 activation (p10 subunit) in primary human RPE cells in the presence of iron (III) ammonium citrate was studied.
Alu RNA is a toxic endogenous retroelement that accumulates in and causes death of the RPE in patients with dry AMD. […] FAC activates Caspase-1 via an Alu RNA intermediate, and induces NLRP3-dependent RPE degeneration (Gelfand et al. Cell Reports 2015). Fe(III) ammonium citrate (100 μM)-induced Caspase-1 activation in primary human RPE cells, monitored by western blotting, is reduced by TM-3TC (25 μM), d4T-ene (25 μM), 2Me-d4T (25 μM), Me-AZT (25-100 μM), and 2Me-AZT (25 μM). N=3-4.

wild-type mice [12] = test: Poly IC-induced RPE degeneration in mice; assay type: in vivo, mouse; conditions: intravitreous; measured 7 days after poly IC
Solubility in water = assay type: physicochemical; conditions: aqueous buffer; Water pH 7.2 at 37° C.
wild-type mice [13] = test: Alu RNA-induced RPE degeneration, mouse model of dry AMD
JR5558 mice = test: Spontaneous CNV in JR5558 mice, fluorescein angiography dye leakage; assay type: in vivo, mouse
From the text: JR5558 mice develop spontaneous choroidal neovascularization (CNV) and are an animal model of wet/neovascular age-related macular degeneration (AMD). The activity of the CNV lesions can be monitored using fluorescein angiography to assess the degree of dye leakage from the lesions, as is done in humans with this disease. FIGS. 81 and 82 are representative images from two JR5558 mice (N=8). The first and third row of FIGS. 81 and 82 show time dependent dye leakage from pre-existing CNV lesions in the left eye (first row) and right eye (third row) of a first and second JR5558 mouse, respectively.

[14] = intraperitoneal 25 mg/kg twice daily

Structure (SMILES)	L1 retrotransposition (EGFP-positive cells) [1]	Caspase-1 cleavage (luminescence) (Caspase-1 [3]; drug 1 nM-100 μM)	logP [4]	Alu RNA-induced Caspase-1 activation/cleavage (Caspase-1 [5])	lentivirus replication (GFP-positive cells per field) [7]	Iron-induced RPE degeneration (mice [10])	pAlu-induced RPE degeneration (wild-type mice [6]; [14])	relative quantity of mtDNA (mtDNA depletion) (mtDNA)	poly IC-induced RPE degeneration (wild-type mice [12])	solubility (Solubility in water)	further results
Cc1cn([C@H]2C[C@H](N=[N+]=[N-])[C@@H](CO)O2)c(=O)[nH]c1=O [AZT, 3′-azido-2′,3′-dideoxythymidine, reference compound]	blocked L1 retrotransposition	reduces Caspase-1 cleavage in a dose-dependent fashion	-0.41	block Caspase-1 cleavage	blocked lentivirus GFP expression						formation of AZT-triphosphate (AZT-TP) ([2]; Raji TK+ cells): produced AZT-TP; formation of AZT-triphosphate (AZT-TP) ([2]; Raji TK− cells): not detectable; IL-1 beta activation by LPS/ATP (IL-1 beta; Raji TK+ cells): blocks IL-1 beta activation; IL-1 beta activation by LPS/ATP (IL-1 beta; Raji TK− cells): blocks IL-1 beta activation; Alu RNA-induced Caspase-1 maturation (Caspase-1 [5]; 50-100 uM, 24 hours after Alu administration): blocked; pAlu-induced RPE degeneration (wild-type mice [6]; intraperitoneal administration, dose not stated): blocked RPE degeneration; laser injury-induced CNV volume (wild-type mice [8]; intravitreous 0.55 nmol): reduced laser injury-induced CNV volume; P2X7-dependent YO-PRO-1 uptake induced by bzATP (human P2X7 receptor): inhibited P2X7-dependent uptake
COCC1C=C[C@H](n2cc(C)c(=O)n(C)c2=O)O1 (stereo partly drawn) [Kamuvudine 2Me-d4T, 1-[(2R)-5-(methoxymethyl)-2,5-dihydrofuran-2-yl]-3,5-dimethyl-1,2,3,4-tetrahydropyrimidine-2,4-dione]	no effect on L1 activity		0.63		do not block lentivirus replication	blocked the development of RPE degeneration	restored to healthy RPE morphology/intercellular junctions	do not exhibit mtDNA depletion	blocks this degeneration	10000 µg/mL (≈ 39.6 mM)	Amyloid beta-induced RPE degeneration (mice [9]): blocked the development of RPE degeneration; iron-induced Caspase-1 activation (Caspase-1 [11]): reduced; iron-induced Caspase-1 activation (Caspase-1 [11]; listed as 2me-d4T): blocked iron-induced Caspase-1 activation
COC[C@@H]1O[C@H](n2ccc(N(C)C)nc2=O)CS1 [Kamuvudine 3Me-3TC, 4-(dimethylamino)-1-[(2R,5S)-2-(methoxymethyl)-1,3-oxathiolan-5-yl]-1,2-dihydropyrimidin-2-one]	no effect on L1 activity	reduces Caspase-1 cleavage in a dose-dependent fashion	0.09		do not block lentivirus replication		protects against RPE degeneration	do not reduce mtDNA		7000 µg/mL (≈ 25.8 mM)	Alu RNA-induced RPE degeneration (wild-type mice [13]; intraperitoneal 25 mg/kg, twice daily for 6 days): protects against RPE degeneration; Alu RNA induced Caspase-1 activation (Caspase-1 [5]; 25-100 μM (25 and 100 μM), listed as TM-3TC): blocked Alu-induced Caspase-1 activation; also recorded: reduced; CNV lesion leakage compared to 3TC (JR5558 mice; 62.5 ng vs 125 ng 3TC): greater reduction in CNV lesion leakage; activity (dye leakage) of pre-existing CNV lesions (JR5558 mice; single intravitreous 62.5 ng, 3 days after administration): suppress the activity of pre-existing CNV lesions; iron-induced Caspase-1 activation (Caspase-1 [11]; listed as TM-3TC): blocked iron-induced Caspase-1 activation; also recorded: reduced
COC[C@@H]1C=C[C@H](n2cc(C)c(=O)[nH]c2=O)O1 [Me-d4T, 1-[(2R,5S)-5-(methoxymethyl)-2,5-dihydrofuran-2-yl]-5-methyl-1,2,3,4-tetrahydropyrimidine-2,4-dione]	no effect on L1 activity		0.41	blocks Caspase-1 activation	do not block lentivirus replication	blocked the development of RPE degeneration		do not exhibit mtDNA depletion	blocks this degeneration	30000 µg/mL (≈ 126 mM)	Caspase-1 cleavage (luminescence) (Caspase-1 [3]; drug 100 μM): reduces Caspase-1 cleavage in a dose-dependent fashion; reduction of inflammasome activation (Caspase-1 [3]; ATP (5 mM), mouse J774 iGLuc cells, FIGS. 70-73): about 70%; Alu-induced RPE degeneration (wild-type mice [13]; intraperitoneal injection, dose not stated): prevents Alu-induced RPE degeneration; replication of GFP-expressing lentivirus ([7]; FIG. 22, concentration not given): does not block lentivirus replication; choroidal neovascularization (CNV) volume (wild-type mice [8]; intravitreous 0.14 nmol, day 7): reduced choroidal neovascularization (CNV) volume
